Data on 64 molecules can be found in PubChem BioAssay AID844 (SRMLSC, 2007).

Each structure is given as a SMILES string. The source made the active and inactive calls. The rule behind the calls is not given here.

For the test, the system named is MRP1 cells, doxorubicin viability shift, 10 uM compound. Briefly: doxorubicin EC50 increase in MRP-1 cells, dose response, cell-based, doxorubicin EC50 shift (AID 844). To be noted: for EC50: measured here: doxorubicin EC50 with compound.

With `O=c1nc2s/c(=C\c3ccc(-c4ccccc4[N+](=O)[O-])o3)c(=O)n2nc1-c1ccccc1`, the fold increase in Dox EC50 is 1.43 (inactive) and the EC50 was found to be 7.73 µM.
Taken in the same sequence, the figures for `O=C(Nc1nc(-c2cccs2)c(-c2cccs2)s1)C1(c2ccccc2)CC1` were 0.66 (inactive) and 3.58 µM.
For `Cc1ccsc1CNn1cnnc1SCc1ccc(Cl)cc1` the same measures were 0.78 (inactive) and 4.22 µM.
For `CCc1noc(C)c1C(=O)Nc1nc(-c2cc(C)ccc2C)c(C)s1` the same measures were 0.83 (inactive) and 4.48 µM.
As to `Cc1ccc(Nc2nc(CSc3nnnn3C)cs2)cc1`, the fold increase in Dox EC50 was 1.18 (inactive) and the EC50 stood at 6.36 µM.
For `O=C(COc1ccc(F)cc1)Nc1ccc(-n2cnnn2)cc1`, the fold increase in Dox EC50 was 0.75 (inactive) and the EC50 was 4.04 µM.
For `CCOC(=O)C1=C(C)Nc2sc(C(=O)c3ccc(C)cc3)c(N)c2C1c1ccc(C(=O)OC)cc1` (stereo not drawn) the same measures were 0.36 (inactive) and 1.96 µM.
For `Cc1nc(=O)c(-c2ccccc2)c(C)n1-c1ccc(O)cc1` the same measures were 1.32 (inactive) and 7.13 µM.
For `CCN(CC)S(=O)(=O)c1ccc(NN=C(C#N)C#N)cc1` the same measures were 0.68 (inactive) and 3.7 µM.
Consider `COC(=O)CC1SC(=O)NC1=O` (stereo not drawn), for which the fold increase in Dox EC50 was 0.9 (inactive) and the EC50 is 4.84 µM.
Taken in the same sequence, the figures for `Cc1ccc2[nH]c(=O)c(C(c3nnnn3C3CCCC3)N3CCCc4ccccc43)cc2c1` (stereo not drawn) were 1 (inactive) and 5.41 µM.
For `CCN(CC(=O)NC(C)C)C(=O)c1ccc(Cl)cc1` the same measures were 0.45 (inactive) and 2.41 µM.
Take `CCc1nccn1C(=O)c1cnn2c(C(F)F)cc(-c3ccc(C)cc3)nc12`: the fold increase in Dox EC50 is 0.1 (inactive) and the 50% effective concentration (EC50) is 0.523 µM.
Taken in the same sequence, the figures for `O=C(NCc1ccccc1)C(c1ccc(O)cc1)N(C(=O)Cn1nnc(-c2cccs2)n1)c1ccc2c(c1)OCCO2` (stereo not drawn) were 0.86 (inactive) and 4.66 µM.
Taken in the same sequence, the figures for `COc1ccc(/C=N/Nc2cc(OC)ncn2)cc1` were 0.57 (inactive) and 3.1 µM.
For `Cc1ccc(NC(=O)CSc2nnc(-c3cccs3)n2Cc2ccco2)cc1` the same measures were 0.78 (inactive) and 4.24 µM.
Turning to `Cc1cccc(-n2ncc3c(N4CC(C)CC(C)C4)ncnc32)c1` (stereo not drawn), the fold increase in Dox EC50 was 0.6 (inactive) and the EC50 came to 3.25 µM.
For `O=C(Nc1nc(-c2cccc([N+](=O)[O-])c2)cs1)C(c1ccccc1)c1ccccc1` the same measures were 1.69 and 9.1 µM.
For `c1ccc(OCCSc2nc3ccccc3[nH]2)cc1` the same measures were 1.03 (inactive) and 5.54 µM.
Taken in the same sequence, the figures for `COc1ccc2cc(-c3cc(C(=O)O)c4ccccc4n3)ccc2c1` were 1.07 (inactive) and 5.75 µM.
Take `CCc1nnc(NC(=O)C2CCCN2S(=O)(=O)c2ccc(F)cc2)s1` (stereo not drawn): the fold increase in Dox EC50 was 1.03 (inactive) and the EC50 is 5.54 µM.
Taken in the same sequence, the figures for `O=C(CSc1ncn[nH]1)Nc1ccc(Br)cc1F` were 0.98 (inactive) and 5.28 µM.
As to `O=C1NC(=O)C2(COC(c3ccccc3Cl)OC2)S1` (stereo not drawn), the fold increase in Dox EC50 was 0.69 (inactive) and the concentration giving a half-maximal response (EC50) amounted to 3.74 µM.
Taken in the same sequence, the figures for `CC(C)CC(=O)n1sc(NC(=O)c2ccccc2)nc1=O` were 0.92 (inactive) and 4.95 µM.
Taken in the same sequence, the figures for `CCC1SC2=NC(C)=C(C(=O)OCCOC)C(c3ccc(C(=O)OC)cc3)N2C1=O` (stereo not drawn) were 0.92 (inactive) and 4.98 µM.
`CC1CCC(NC(=O)Cn2c3c(c(-c4ccccc4Cl)cc2=O)CCC3)CC1` (stereo not drawn): the fold increase in Dox EC50 was 1.13 (inactive) and the concentration for a half-maximal effect (EC50) was 6.11 µM.
For `N#Cc1nc(COc2ccc(F)cc2)oc1N1CCC(Cc2ccccc2)CC1` the same measures were 0.99 (inactive) and 5.35 µM.
For `N#Cc1cc2c(nc1SCc1ccc(Cl)cc1)CCCC2` the same measures were 1.07 (inactive) and 5.75 µM.
Taken in the same sequence, the figures for `Cc1cc(N/N=C/c2ccccc2Cl)nc(NCc2ccccc2)n1` were 0.2 (inactive) and 1.08 µM.
Regarding `Oc1c(C(c2cccs2)N2CCN(c3ccc(F)cc3)CC2)sc2ncnn12` (stereo not drawn), the fold increase in Dox EC50 was 1.32 (inactive) and the 50% effective concentration (EC50) was 7.1 µM.
On to `COc1ccc(C(C)=O)cc1CSc1nnc(Nc2ccccc2C)s1`, for which the fold increase in Dox EC50 was 0.75 (inactive) and the 50% effective concentration (EC50) is 4.04 µM.
For `N#Cc1c(N)n(CCOC(=O)c2cccc(Br)c2)c2nc3ccccc3nc12` the same measures were 0.93 (inactive) and 5.04 µM.
For `O=[N+]([O-])c1ccc(O)c(/C=N/n2cnc3ccccc32)c1` the same measures were 0.67 (inactive) and 3.61 µM.
Taken in the same sequence, the figures for `CC/C(=N\NC(=O)C(N)=O)c1ccccc1O` were 0.61 (inactive) and 3.29 µM.
As to `O=C1OC(Nc2ccccn2)c2ccccc21` (stereo not drawn), the fold increase in Dox EC50 was 0.81 (inactive) and the EC50 stood at 4.35 µM.
Take `CCOc1ccc(NC(=O)Nc2cc(-c3ccccc3)sc2C(=O)OC)cc1`: the fold increase in Dox EC50 was 0.62 (inactive) and the EC50 amounted to 3.34 µM.
For `Cc1cc(C)nc(NN2C(=O)/C(=C/c3ccc(O)cc3)SC2=S)n1` the same measures were 1.39 (inactive) and 7.51 µM.
For `Cn1c(=O)[nH]c(=O)c2c1nc(SCC(=O)Nc1ccccc1)n2Cc1ccccc1` the same measures were 0.45 (inactive) and 2.44 µM.
Taken in the same sequence, the figures for `CCN=c1scc(C)n1/N=C/c1ccc(O)c(O)c1O` were 0.18 (inactive) and 0.985 µM.
As for `Cc1ccc(S(=O)(=O)N2CCC(C(=O)N[C@@H](C)C(=O)Nc3ccc4c(c3)OCO4)CC2)cc1`, the fold increase in Dox EC50 was 1.43 (inactive) and the EC50 stood at 7.7 µM.
Taken in the same sequence, the figures for `COc1cccc(C2CC(c3ccc(Cl)cc3Cl)n3nc(N)nc3N2)c1` (stereo not drawn) were 1.03 (inactive) and 5.56 µM.
Taken in the same sequence, the figures for `O=C(O)/C=C\C(=O)NC1CCCCC1` were 0.68 (inactive) and 3.67 µM.
For `COc1ccc(NC(=O)CCCC2CCCCC2)cc1S(=O)(=O)N1CCCCC1` the same measures were 1.68 and 9.05 µM.
For the molecule `O=C(CSc1ncn[nH]1)NCCC(c1ccccc1)c1ccccc1`, the fold increase in Dox EC50 is 0.56 (inactive) and the 50% effective concentration (EC50) was determined as 3.03 µM.
Taken in the same sequence, the figures for `Cc1ccc(C)c2[nH]c(=O)c(CN(Cc3ccco3)S(=O)(=O)c3ccc4c(c3)OCCO4)cc12` were 0.88 (inactive) and 4.73 µM.
Taken in the same sequence, the figures for `COc1ccc(CNc2nc(NCc3ccc(OC)cc3)n(S(C)(=O)=O)n2)cc1` were 1.07 (inactive) and 5.78 µM.
For `Cc1[nH]c2ccccc2c1C(=O)C(=O)NCCC1=CCCCC1` the same measures were 0.98 (inactive) and 5.3 µM.
For the molecule `CCOC(=O)C1=C(C)Nc2ncnn2C1c1cccnc1` (stereo not drawn), the fold increase in Dox EC50 is 0.83 (inactive) and the EC50 is 4.5 µM.
For `CCOC(=O)C(C(=O)Nc1nc2ccccc2s1)C1CCCCC1` (stereo not drawn) the same measures were 1 (inactive) and 5.39 µM.
In the case of `Clc1ccc(CSc2ncn[nH]2)cc1`, the fold increase in Dox EC50 is 1.03 (inactive) and the EC50 is 5.54 µM.
Taken in the same sequence, the figures for `Cn1cc(Br)c(C(=O)NNC(=O)c2ccc(Cl)cc2)n1` were 1.23 (inactive) and 6.63 µM.
With `Cc1ccc(Nc2nnc(-c3ccc(N4CCOCC4)c([N+](=O)[O-])c3)c3ccccc23)cc1`, the fold increase in Dox EC50 is 0.61 (inactive) and the EC50 is 3.28 µM.
Taken in the same sequence, the figures for `Cc1cccc(-n2c(N)cc(=O)nc2SCC(=O)Nc2nnc(C)s2)c1` were 1.54 and 8.29 µM.
Taken in the same sequence, the figures for `CC(/C=C1\SC(=S)N(CCCC(=O)Nc2ccc(C(=O)O)cc2)C1=O)=C\c1ccccc1` were 0.55 (inactive) and 2.98 µM.
Taken in the same sequence, the figures for `COc1ncnc2c1oc1nc(CC(C)C)c3c(c12)CCCC3` were 0.66 (inactive) and 3.57 µM.
As to `O=C(N/N=C/c1ccccc1[N+](=O)[O-])c1ccc(COc2ccccc2-c2ccccc2)cc1`, the fold increase in Dox EC50 was 1 (inactive) and the 50% effective concentration (EC50) came out at 5.39 µM.
Taken in the same sequence, the figures for `Cc1cc(C)n(CCc2nc(-c3ccc(-c4ccccc4)cc3)cs2)n1` were 1.82 and 9.8 µM.
Taken in the same sequence, the figures for `CCOC(=O)c1sc(-c2ccccc2)cc1NC(=O)Nc1ccccc1` were 0.4 (inactive) and 2.16 µM.
For `Cc1ccc(OCc2nnc(SCC(=O)Nc3cccc4ccccc34)n2-c2ccccc2)cc1` the same measures were 0.33 (inactive) and 1.8 µM.
In the case of `COc1ccc(-c2cc3nc(-c4ccccc4)cc(N4CCC5(CC4)OCCO5)n3n2)cc1`, the fold increase in Dox EC50 is 0.21 (inactive) and the half-maximal effective concentration (EC50) was 1.16 µM.
For `CCC(=O)c1ccc(N2CCOCC2)c(F)c1` the same measures were 1.32 (inactive) and 7.12 µM.
Taken in the same sequence, the figures for `CCCC(=O)c1ccc(N2CCOCC2)c(F)c1` were 1.07 (inactive) and 5.75 µM.
For `O=C(Nc1ncc(Cc2ccc(C(F)(F)F)cc2)s1)c1ccc(-c2cccc([N+](=O)[O-])c2)o1` the same measures were 0.71 (inactive) and 3.86 µM.
Regarding `Cc1c(OCC(=O)OC(C)(C)C)ccc2c3c(c(=O)oc12)CCC3`, the fold increase in Dox EC50 is 1.04 (inactive) and the EC50 was found to be 5.59 µM.
